Values quoted from earlier work, collected in publication PMC10650486, “Fluoroquinolone-Based Organic Salts (GUMBOS) with Antibacterial Potential” (International Journal of Molecular Sciences, 2023).

Key:
S. aureus [1] = conditions: cited from earlier work
E. coli = tested on: E. coli; set-up: method as in earlier work; conditions: cited from earlier work
S. aureus [2] = tested on: S. aureus; set-up: method as in earlier work; conditions: cited from earlier work
[3] = cited from earlier work

COc1c(N2C[C@@H]3CCCN[C@@H]3C2)c(F)cc2c(=O)c(C(=O)O)cn(C3CC3)c12 [[Mox], moxifloxacin]
MIC (S. aureus [1]): 0.032 to 2 µg/mL | epidemiologic cutoff value (ECOFF) (E. coli): 0.25 mg·L^−1 | epidemiologic cutoff value (ECOFF) (S. aureus [2]): 0.25 mg·L^−1 | logKO/W [3]: −0.28
